Measurements from US20020048566A1, “Modulation of cellular apoptosis and methods for treating cancer” (priority 2000, published 2002).
Residues, ends and D or L forms follow the SMILES beside them. *: point of attachment. Cbz = O=C(OCc1ccccc1)*; CH2F = FC*

Legend:
Type in all cases: cell-based, human
[1] = tested on: adrenal carcinoma cell line SW13; test: FACS for active caspase 3 after p53 transfection with irreversible caspase inhibitors; conditions: inhibitor 20 μM added four hours after transfection, harvested at 24 hours
Method: Transfections and fluorescence-activated cell sorting (FACS) analysis. Transfections were carried out as previously described (Wu et al., 1997). In brief, before transfection, 5×10^5 cells/6 cm well were seeded. The cells were transfected with lipofectamine Plus. Four hours after transfections the media was changed and an irreversible caspase inhibitor, Z-IETD-FMK (caspase 8) or Z-LEHD-FMK (caspase 9) was added to the media at a final concentration of 20 μM. Cells were harvested 24 hours after transfection and prepared for detection of active-caspase 3 by flow cytometry as previously described (Ozoren et al., 2000). For adenoviral experiments, cells were harvested 48 hours after infection and fixed and stained with propidium iodide as previously described (Ozoren et al., 2000). Cell sorting was performed.
FIG. 5. Infection of colon carcinoma cell line SW480 and breast carcinoma cell line SKBr3 with Ad-p53 results in caspase cleavage and apoptosis. (a) Western blot analysis for PARP cleavage after adenovirus infection. SW480 and SKBr3 cell lines were infected with an MOI of 50 with either Ad-LacZ or Ad-p53 and harvested at 0, 24 and 48 hours after infection. […] (b) Western blot analysis of caspase 8 and 9 cleavage after adenovirus infection. […]

[2] = tested on: SW480 cells; test: GFP-spectrin/PI flow cytometry for sub-G1 peak after transient transfection; set-up: key to Apoptotic ability (Table II): WT, able to induce apoptosis as well as wild-type protein; ±, 20-25% reduction in ability to induce apoptosis; −, completely deficient in ability to induce apoptosis
Method: GFP/PI Fluorescence-activated Cell Sorting Analysis for Sub-G1 Peak. SW480 cells were transfected with a 1:10 ratio of EGFP-spectrin (Kalejta, R. F., et al., Mol. Ther. 1:130-144 (2000)) and KILLER/DR5 expression plasmid. Transfections were harvested at 18 hours after transfection, processed, and analyzed for the presence of a sub-G1 peak as described previously (Ozoren, N., et al., Int. J. Oncol. 16:917-925 (2000)). 10,000 GFP-positive cells were analyzed per experiment, and three independent experiments were performed for each mutant. Percentage of apoptosis was calculated by subtracting transfection-induced sub-G1 peak (vector transfection) from each wild-type or mutant KILLER/DR5 sub-G1 peak. Figures for Tables II and III were generated by setting wild-type death to 100% (˜40% sub-G1 peak at 18 hours) in order to compare point mutants to the wild-type protein.
(§1) Conserved Hydrophobic Residues Are More Critical for Apoptotic Signaling as Compared with Conserved Charged Positions in the KILLER/DR5 DD. In order to functionally characterize the mutant receptors, this study employed three methods to assess cell death following transfection. The first method involved cotransfection of the mutant receptor along with pCMVb gal. Blue cells were counted after 40 hours in order to determine relative cell survival as compared with vector-transfected cells (number of blue cells for vector was set as equivalent to 100% survival; Table I). To specifically measure apoptosis, this study used a cotransfection based flow cytometric assay to functionally assess apoptotic signaling of each substitution mutant. Each mutant was cotransfected with an EGFP-spectrin construct at a 10:1 ratio (mutant plasmid:EGFP-spectrin plasmid) into SW480 cells for 18 hours and the presence of a sub-G1 peak was used to quantitate apoptotic signaling. […]

[3] = tested on: SW480 cells; test: Blue cell assay (cotransfection with pCMVb gal, relative cell survival); conditions: for Blue cells % of vector: blue cells counted after 40 hours, vector-transfected blue cells set to 100% survival
Method: Blue Cell Method. The blue cell method was performed as previously described (Meng, R. D., et al., Mol. Ther. 1:130-144 (2000)). Calculations for Table I were carried out by setting the number of vector-transfected blue cells to 100% (at least 300 cells for each independent experiment), and the wild-type and point mutants were determined as a percentage of vector transfected.
Conserved Hydrophobic Residues Are More Critical for Apoptotic Signaling as Compared with Conserved Charged Positions in the KILLER/DR5 DD. In order to functionally characterize the mutant receptors, this study employed three methods to assess cell death following transfection. The first method involved cotransfection of the mutant receptor along with pCMVb gal. Blue cells were counted after 40 hours in order to determine relative cell survival as compared with vector-transfected cells (number of blue cells for vector was set as equivalent to 100% survival; Table I). To specifically measure apoptosis, this study used a cotransfection based flow cytometric assay to functionally assess apoptotic signaling of each substitution mutant. Each mutant was cotransfected with an EGFP-spectrin construct at a 10:1 ratio (mutant plasmid:EGFP-spectrin plasmid) into SW480 cells for 18 hours and the presence of a sub-G1 peak was used to quantitate apoptotic signaling. The use of the spectrinbound GFP allowed for the identification of specifically transfected cells, and the spectrin fusion permits cell membrane retention of GFP even if cells lose membrane permeability due to cell death (Kalejta, R. F., et al., Mol. Ther. 1:130-144 (2000)). […] One example of a signaling-competent and -incompetent mutant is also shown for comparison. Table II lists the results of three independent experiments for each mutant compared with the wild-type protein after subtracting out transfection-induced death.

[4] = tested on: SW480 cell lines; test: FACS sub-G1 content after Ad-p53 infection of SW480 stably overexpressing c-FLIP-s or Bcl-XL; conditions: stable overexpression, 48 hours after infection
Excerpt: Cell culture and adenoviral/retroviral infection. The culture conditions for SW480, HCT 116, and SkBr3 were maintained as previously described (Wu et al., 1997). The adrenal carcinoma cell line, SW13 was a kind gift from R. Sheikhattar (Wistar Institute). Ad-LacZ and Ad-p53 were obtained from B. Vogelstein (Johns Hopkins University) All adenoviruses were propagated, titered, and amplified as previously described (El-Deiry et al., 1993). The retroviral vector pLIB, pLIB-EGFP, pLIB-c-Flip-s, or pLIB-Bcl-XL was cotransfected with pVSVG and pCgP (Dr. Michael Malim, University of Pennsylvania) into 293T cells using the CaPO4 method. The resulting supernatant was used to infect the SW480 cell line (3×10^5 cell/well plated 48 hours before infection) at a titer necessary to obtain greater than 90% infectivity as previously described (Fouchier et al., 1997).
Transfections and fluorescence-activated cell sorting (FACS) analysis. Transfections were carried out as previously described (Wu et al., 1997). In brief, before transfection, 5×10^5 cells/6 cm well were seeded. The cells were transfected with lipofectamine Plus. Four hours after transfections the media was changed and an irreversible caspase inhibitor, Z-IETD-FMK (caspase 8) or Z-LEHD-FMK (caspase 9) was added to the media at a final concentration of 20 μM. […]

[5] = tested on: SW480 cells; test: PARP cleavage Western blot after transient transfection; conditions: 16 hours after transfection
Method: Transfections, in Vitro Translation, and Western Blotting. The colon cancer cell line SW480 was maintained and transfected as described previously (Wu, G. S., et al., Nat. Genet. 17:141-143 (1997)). Protein extracts were harvested in 1×Laemmli sample buffer 16 hours after transfection. PARP and Myc immunoblots were performed following SDS-polyacrylamide gel electrophoresis. Horseradish peroxidase-conjugated secondary antibody (1:5000) treatments were followed by enhanced chemiluminescence. In vitro translation reactions were carried out using 1 μg of wild-type or mutant KILLER/DR5 plasmid DNA and a T7-coupled reticulocyte lysate system.
as §1, with “The first method involved cotransfection of the mutant receptor along with pCMVb gal.” left out, “To specifically measure apoptosis, this study used a cotransfection based flow cytometric assay to functionally assess apoptotic signaling of each substitution mutant.” left out

[6] = tested on: TRAIL DISC (FADD and caspase 8 recruitment) in 293 HEK cells; test: TRAIL DISC immunoprecipitation; conditions: 16 hours transfection, then 50 ng/ml His-tagged TRAIL 15 minutes at 37° C.
Method: TRAIL DISC Immunoprecipitation. 293 HEK cells were plated to achieve 80% confluence at the time of transfection in a T75. 30 ug of the indicated KILLER/DR5 plasmid was transfected by calcium phosphate for 16 hours to minimize loss of transfected cells. The cells were then trypsinized, spun down, and resuspended in 2 ml of complete medium supplemented with 50 ng/ml His tagged-TRAIL and 1 μg/ml anti-6-histidine antibody for 15 minutes at 37° C. For untreated samples, only the TRAIL was excluded. The cells were washed twice with ice-cold phosphate-buffered saline and lysed for 30 minutes on ice in TRAIL DISC IP lysis buffer (30 mM Tris, pH 7.5, 150 mM NaCl, 10% glycerol, 1% Triton X-100). The lysates were cleared twice by centrifugation at 4° C. The supernatants were immunoprecipitated overnight with 30 μl of agarose at 4° C. to isolate the TRAIL DISC. The complexes were subsequently washed four times with TRAIL DISC IP lysis buffer and eluted with elution buffer with 0.1 M dithiothreitol at room temperature for 2 hours. The protein complexes were methanol/chloroform-precipitated and resolved on 15% SDS-polyacrylamide gels. […]
293 HEK cells were chosen due to their ability to be transfected and relative resistance to TRAIL-induced apoptosis. […] The DISC was then immunoprecipitated and analyzed for the presence of the exogenous KILLER/DR5 receptor along with FADD and caspase 8. […]

COC(=O)CC[C@H](NC(=O)[C@H](CC(C)C)NC(=O)OCc1ccccc1)C(=O)N[C@@H](Cc1cnc[nH]1)C(=O)N[C@@H](CC(=O)OC)C(=O)CF [Z-LETD-FMK, Z-LEHD-FMK] (Cbz-LE(OMe)HD(OMe)-CH2F)
inhibition of p53-dependent apoptosis (activated caspase 3) [1]: could be inhibited

CC[C@H](C)[C@H](NC(=O)OCc1ccccc1)C(=O)N[C@@H](CCC(=O)OC)C(=O)N[C@H](C(=O)N[C@@H](CC(=O)OC)C(=O)CF)[C@@H](C)O [Z-IETD-FMK] (Cbz-IE(OMe)TD(OMe)-CH2F)
inhibition of p53-dependent apoptosis (activated caspase 3) [1]: could be inhibited

K388A: KILLER/DR5 death domain alanine point mutant
Apoptotic ability (Table II) ([2]; 18 hours after transfection): WT
Sub-G1 peak % WT (alanine scanning mutants) ([2]; 18 hours after transfection, transfection-induced death subtracted, wild-type death set to 100%, three independent experiments): 101 ± 11.3 % WT
Blue cells % of vector [3]: 9 ± 1.5 % of vector

Bcl-XL: stably over-expressed Bcl-XL, specific inhibitor of caspase 9 activation
inhibition of p53-mediated death after Ad-p53 infection (sub-G1) [4]: partially inhibit

Wild-type KILLER/DR5: wild-type TRAIL receptor KILLER/DR5, Myc-His tagged expression construct
PARP cleavage [5]: efficiently caused PARP cleavage
sub-G1 peak ([2]; at 18 hours, absolute value set as 100% wild-type death): ~40%
Blue cells % of vector [3]: 8 ± 0.2 % of vector
blue cell staining retained ([3]; text summary of Table I): 8%
FADD and caspase 8 recruitment to TRAIL DISC [6]: robust recruitment of both FADD and caspase 8
